Test results published in patent US20250197387A1, “BCL-XL DEGRADERS AND USES THEREOF” (Kymera Therapeutics, Inc., priority 2021, published 2025).

Legend:
Type in all cases: cell-based
[1] = target: T1, BCL-XL (Homo sapiens, UniProt Q07817); assay: Bcl-xL ELISA degradation in MOLT-4 cells, 6 h; settings: for DC50: read-out: Bcl-xL ELISA in MOLT-4 degradation 6 h: Mean external-Abs DC50
T1 construct: endogenous in cells; host or cells: MOLT-4
Method: The letter codes for BCL-XL DC50 include: A (<0.01 μM); B (0.01-0.1 μM); C (>[…]); D (>0.5-1.0 μM); and E (>1.0 μM). The letter codes for Dmax % include A (>75%); B (50 to 75%); C (<50%).

[2] = test system: MOLT-4 cells; assay: CTG (CellTiter-Glo) cell viability assay, MOLT-4; settings: Homo sapiens, MOLT-4, 72 h, 3 day incubation, read-out: CTG Cell Viability Assay - MOLT-4 3 day: Average external-IC50
How it was run: (§1)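 Luminescence from CellTiter-Glo, read after 3 days of compound exposure at 37 °C, gave viability; IC50 values came from three-parameter logistic curves. Cells were plated at 10,000 per well and dosed over nine 1:3 steps topping at 10 μM.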

[3] = test system: Caki-2 cells; assay: CTG (CellTiter-Glo) cell viability assay, Caki-2; settings: Homo sapiens, 72 h, 3 day incubation, read-out: CTG Chempartner - Caki-2 3 day: Average external-IC50
How it was run: as §1

T1 sequence (Q07817 whole entry): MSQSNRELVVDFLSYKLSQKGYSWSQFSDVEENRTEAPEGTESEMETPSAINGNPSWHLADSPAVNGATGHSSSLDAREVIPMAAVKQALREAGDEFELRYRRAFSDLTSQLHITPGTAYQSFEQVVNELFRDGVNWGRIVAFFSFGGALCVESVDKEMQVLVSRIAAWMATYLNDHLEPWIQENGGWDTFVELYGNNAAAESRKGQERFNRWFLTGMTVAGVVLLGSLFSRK

Cc1ncsc1-c1ccc([C@H](C)NC(=O)[C@@H]2C[C@@H](O)CN2C(=O)[C@H](NC(=O)CCCCCS(=O)(=O)NC(=O)c2nc(N3CCc4cccc(C(=O)Nc5nc6ccccc6s5)c4C3)ccc2-c2cnn(CC3CCCCC3)c2C)C(C)(C)CCOP(=O)(O)O)cc1 [I-416]
Dmax [1]: > 75% | DC50 [1]: 0.1 to 0.5 µM | IC50 [2]: > 3 µM | IC50 [3]: > 10 µM

CCC(CC)Cn1ncc(-c2ccc(N3CCc4cccc(C(=O)Nc5nc6ccccc6s5)c4C3)nc2C(=O)NS(=O)(=O)c2ccc(N3CCC(C(=O)N[C@H](C(=O)N4C[C@H](O)C[C@H]4C(=O)N[C@@H](C)c4ccc(-c5scnc5C)cc4)C(C)(C)C)CC3)cc2)c1C [I-349]
Dmax [1]: > 75% | DC50 [1]: < 0.01 µM | IC50 [2]: < 0.1 µM | IC50 [3]: > 10 µM

C#Cc1ccc(CNC(=O)[C@@H]2C[C@@H](O)CN2C(=O)[C@@H](NC(=O)CCNCCS(=O)(=O)NC(=O)c2nc(N(C)c3cc(C)c(Nc4nc5ccccc5s4)nn3)ccc2-c2cnn(CC34CC5CC(CC(C5)C3)C4)c2C)C(C)(C)C)cc1 [I-429]
Dmax [1]: > 75% | DC50 [1]: 0.01 to 0.1 µM | IC50 [2]: 0.1 to 1 µM | IC50 [3]: > 10 µM

C#Cc1ccc(CNC(=O)[C@@H]2C[C@@H](O)CN2C(=O)[C@@H](NC(=O)CCc2ccc(S(=O)(=O)NC(=O)c3nc(N4CCc5cccc(C(=O)Nc6nc7ccccc7s6)c5C4)ccc3-c3cnn(CC(C)C)c3C)cc2)C(C)(C)C)cc1 [I-319]
Dmax [1]: 50 to 75% | DC50 [1]: > 1 µM | IC50 [2]: > 3 µM | IC50 [3]: > 10 µM

Cc1cc(N(C)c2ccc(-c3cnn(CC45CC6CC(CC(C6)C4)C5)c3C)c(C(=O)NS(=O)(=O)CCCCCC(=O)N[C@H](C(=O)N3C[C@H](O)C[C@H]3C(=O)NCc3ccc(-c4scnc4C)cc3)C(C)(C)C)n2)nnc1Nc1nc2ccccc2s1 [I-367]
Dmax [1]: > 75% | DC50 [1]: 0.01 to 0.1 µM | IC50 [2]: < 0.1 µM | IC50 [3]: > 10 µM

Cc1ncsc1-c1ccc([C@H](C)NC(=O)[C@@H]2C[C@@H](O)CN2C(=O)[C@@H](NC(=O)CCCS(=O)(=O)NC(=O)c2nc(N3CCc4cccc(C(=O)Nc5nc6cccnc6s5)c4C3)ccc2-c2cnn(CC3CCCCC3)c2C)C(C)(C)C)cc1 [I-331]
Dmax [1]: 50 to 75% | DC50 [1]: 0.1 to 0.5 µM | IC50 [2]: 0.1 to 1 µM | IC50 [3]: > 10 µM

Cc1ncsc1-c1ccc([C@H](C)NC(=O)[C@@H]2C[C@@H](O)CN2C(=O)[C@@H](NC(=O)C#CC2CCN(S(=O)(=O)NC(=O)c3nc(N4CCc5cccc(C(=O)Nc6nc7ccccc7s6)c5C4)ccc3-c3cnn(CC4CCCCC4)c3C)CC2)C(C)(C)C)cc1 [I-420]
Dmax [1]: > 75% | DC50 [1]: 0.01 to 0.1 µM | IC50 [2]: < 0.1 µM | IC50 [3]: 1 to 10 µM

C#Cc1ccc(CNC(=O)[C@@H]2C[C@@H](O)CN2C(=O)[C@@H](NC(=O)CCCCCS(=O)(=O)NC(=O)c2nc(N3CCc4cccc(C(=O)Nc5nc6ccccc6s5)c4C3)ccc2-c2cnn(CC3CCCCC3)c2C)C(C)(C)CCO)cc1 [I-354]
Dmax [1]: > 75% | DC50 [1]: < 0.01 µM | IC50 [2]: < 0.1 µM | IC50 [3]: > 10 µM

Cc1ncsc1-c1ccc([C@H](C)NC(=O)[C@@H]2C[C@@H](O)CN2C(=O)[C@@H](NC(=O)CCCCc2nc(C3CCCN(C(=O)c4nc(N5CCc6cccc(C(=O)Nc7nc8ccccc8s7)c6C5)ccc4-c4cnn(CC5CCCCC5)c4C)C3)no2)C(C)(C)C)cc1 (stereo partly shown) [I-306]
Dmax [1]: > 75% | DC50 [1]: 0.01 to 0.1 µM | IC50 [2]: < 0.1 µM | IC50 [3]: 1 to 10 µM

Cc1ncsc1-c1ccc([C@H](C)NC(=O)[C@@H]2C[C@@H](O)CN2C(=O)[C@@H](NC(=O)C2CCN(c3ccc(S(=O)(=O)NCc4nc(N5CCc6cccc(C(=O)Nc7nc8ccccc8s7)c6C5)ccc4-c4cnn(CC5CCCCC5)c4C)cc3)CC2)C(C)(C)C)cc1 [I-324]
Dmax [1]: < 50% | DC50 [1]: > 1 µM | IC50 [2]: > 3 µM | IC50 [3]: > 10 µM

Cc1ncsc1-c1ccc([C@H](C)NC(=O)[C@@H]2C[C@@H](O)CN2C(=O)[C@@H](NC(=O)CCCCCS(=O)(=O)NC(=O)c2nc(N3CCc4cccc(C(=O)Nc5nc6cccnc6s5)c4C3)ccc2-c2cnn(CC(C)(C)C)c2C)C(C)(C)C)cc1 [I-466]
Dmax [1]: > 75% | DC50 [1]: 0.1 to 0.5 µM | IC50 [2]: 1 to 3 µM | IC50 [3]: > 10 µM

C#Cc1ccc(CNC(=O)[C@@H]2C[C@@H](O)CN2C(=O)[C@@H](NC(=O)CCCCS(=O)(=O)NC(=O)c2nc(N(C)c3cc(C)c(Nc4nc5cccnc5s4)nn3)ccc2-c2cnn(CC34CC5CC(CC(C5)C3)C4)c2C)C(C)(C)C)cc1 [I-453]
Dmax [1]: > 75% | DC50 [1]: 0.1 to 0.5 µM | IC50 [2]: > 3 µM | IC50 [3]: > 10 µM

Cc1ncsc1-c1ccc(CNC(=O)[C@@H]2C[C@@H](O)CN2C(=O)[C@@H](NC(=O)C2CCN(c3ccc(S(=O)(=O)NC(=O)c4nc(N5CCc6cccc(C(=O)Nc7nc8ccccc8s7)c6C5)ccc4-c4cnn(CC5CCCCC5)c4C)cc3C#N)CC2)C(C)(C)C)cc1 [I-360]
Dmax [1]: > 75% | DC50 [1]: < 0.01 µM | IC50 [2]: 0.1 to 1 µM | IC50 [3]: > 10 µM

Cc1ncsc1-c1ccc(CNC(=O)[C@@H]2C[C@@H](O)CN2C(=O)[C@@H](NC(=O)CCc2cccc(S(=O)(=O)NC(=O)c3nc(N4CCc5cccc(C(=O)Nc6nc7ccccc7s6)c5C4)ccc3-c3cnn(CC4CCCCC4)c3C)c2)C(C)(C)C)cc1 [I-283]
Dmax [1]: > 75% | DC50 [1]: < 0.01 µM | IC50 [2]: < 0.1 µM | IC50 [3]: 1 to 10 µM

Cc1cc(N(C)c2ccc(-c3cnn(CC45CC6CC(CC(C6)C4)C5)c3C)c(C(=O)NS(=O)(=O)CCN(C)CCC(=O)N[C@H](C(=O)N3C[C@H](O)C[C@H]3C(=O)N[C@@H](C)c3ccc(-c4scnc4C)cc3)C(C)(C)C)n2)nnc1Nc1nc2ccccc2s1 [I-428]
Dmax [1]: > 75% | DC50 [1]: 0.01 to 0.1 µM | IC50 [2]: < 0.1 µM | IC50 [3]: > 10 µM

Cc1cc(N(C)c2ccc(-c3cnn(CC45CC6CC(CC(C6)C4)C5)c3C)c(C(=O)NS(=O)(=O)CCCCCC(=O)N[C@H](C(=O)N3C[C@H](O)C[C@H]3C(=O)N[C@@H](C)c3ccc4c(c3)c(C)nn4C)C(C)(C)C)n2)nnc1Nc1nc2ccccc2s1 (single isomer, unassigned) [I-491]
Dmax [1]: > 75% | DC50 [1]: < 0.01 µM | IC50 [2]: < 0.1 µM | IC50 [3]: > 10 µM

Cc1ncsc1-c1ccc([C@H](C)NC(=O)[C@@H]2C[C@@H](O)CN2C(=O)[C@@H](NC(=O)N2CC(Cc3ccc(S(=O)(=O)NC(=O)c4nc(N5CCc6cccc(C(=O)Nc7nc8ccccc8s7)c6C5)ccc4-c4cnn(CC5CCCCC5)c4C)cc3)C2)C(C)(C)C)cc1 [I-346]
Dmax [1]: > 75% | DC50 [1]: 0.01 to 0.1 µM | IC50 [2]: 0.1 to 1 µM | IC50 [3]: > 10 µM

Cc1ncsc1-c1ccc([C@H](C)NC(=O)[C@@H]2C[C@@H](O)CN2C(=O)[C@@H](NC(=O)C2CCN(c3ccc(S(=O)(=O)NC(=O)c4nc(N5CCc6cccc(C(=O)Nc7nc8ccccc8s7)c6C5)ccc4-c4cnn(CC5CCCCC5)c4C)cc3COP(=O)(O)O)CC2)C(C)(C)C)cc1 [I-334]
Dmax [1]: > 75% | DC50 [1]: 0.1 to 0.5 µM | IC50 [2]: 1 to 3 µM | IC50 [3]: 1 to 10 µM

Cc1cc(N(C)c2ccc(-c3cnn(CC45CC6CC(CC(C6)C4)C5)c3C)c(C(=O)NS(=O)(=O)CCCCCc3ccc4c(c3)n(C)c(=O)n4C3CCC(=O)NC3=O)n2)nnc1Nc1nc2ccccc2s1 (stereo not shown) [I-424]
Dmax [1]: > 75% | DC50 [1]: < 0.01 µM | IC50 [2]: < 0.1 µM | IC50 [3]: 1 to 10 µM

Cc1cc(N(C)c2ccc(-c3cnn(CC45CC6CC(CC(C6)C4)C5)c3C)c(C(=O)NS(=O)(=O)CCCCCC(=O)N[C@H](C(=O)N3C[C@H](O)C[C@H]3C(=O)N[C@@H](C)c3ccc(-c4scnc4C)cc3)C(C)(C)C)n2)nnc1Nc1nc2ccccc2s1 [I-356]
Dmax [1]: > 75% | DC50 [1]: < 0.01 µM | IC50 [2]: < 0.1 µM | IC50 [3]: > 10 µM

Cc1ncsc1-c1ccc([C@H](C)NC(=O)[C@@H]2C[C@@H](O)CN2C(=O)[C@H](c2cc(OC3CCN(CCNC(=O)c4nc(N5CCc6cccc(C(=O)Nc7nc8ccccc8s7)c6C5)ccc4-c4cnn(CC5CCCCC5)c4C)CC3)no2)C(C)C)cc1 [I-292]
Dmax [1]: 50 to 75% | DC50 [1]: 0.1 to 0.5 µM | IC50 [2]: 0.1 to 1 µM | IC50 [3]: 1 to 10 µM

C#Cc1ccc([C@H](C)NC(=O)[C@@H]2C[C@@H](O)CN2C(=O)[C@@H](NC(=O)CCCCCS(=O)(=O)NC(=O)c2nc(N3CCc4cccc(C(=O)Nc5nc6cccnc6s5)c4C3)ccc2-c2cnn(CC3CCCCC3)c2C)C(C)(C)C)cc1 [I-364]
Dmax [1]: > 75% | DC50 [1]: < 0.01 µM | IC50 [2]: < 0.1 µM | IC50 [3]: > 10 µM
